We go through eleven compounds from patent US8093281B2, “Indazoles as glucocorticoid receptor ligands” (Glaxo Group Limited, priority 2005, dated 2012).

One assay addresses T1, Progesterone Receptor (Homo sapiens, UniProt P06401).
T1 construct: expressed in transfected cells; host or cells: CV-1 cells transduced with PRb-BacMam and MMTV-BacMam (luciferase reporter)
T1 sequence (P06401 1-933): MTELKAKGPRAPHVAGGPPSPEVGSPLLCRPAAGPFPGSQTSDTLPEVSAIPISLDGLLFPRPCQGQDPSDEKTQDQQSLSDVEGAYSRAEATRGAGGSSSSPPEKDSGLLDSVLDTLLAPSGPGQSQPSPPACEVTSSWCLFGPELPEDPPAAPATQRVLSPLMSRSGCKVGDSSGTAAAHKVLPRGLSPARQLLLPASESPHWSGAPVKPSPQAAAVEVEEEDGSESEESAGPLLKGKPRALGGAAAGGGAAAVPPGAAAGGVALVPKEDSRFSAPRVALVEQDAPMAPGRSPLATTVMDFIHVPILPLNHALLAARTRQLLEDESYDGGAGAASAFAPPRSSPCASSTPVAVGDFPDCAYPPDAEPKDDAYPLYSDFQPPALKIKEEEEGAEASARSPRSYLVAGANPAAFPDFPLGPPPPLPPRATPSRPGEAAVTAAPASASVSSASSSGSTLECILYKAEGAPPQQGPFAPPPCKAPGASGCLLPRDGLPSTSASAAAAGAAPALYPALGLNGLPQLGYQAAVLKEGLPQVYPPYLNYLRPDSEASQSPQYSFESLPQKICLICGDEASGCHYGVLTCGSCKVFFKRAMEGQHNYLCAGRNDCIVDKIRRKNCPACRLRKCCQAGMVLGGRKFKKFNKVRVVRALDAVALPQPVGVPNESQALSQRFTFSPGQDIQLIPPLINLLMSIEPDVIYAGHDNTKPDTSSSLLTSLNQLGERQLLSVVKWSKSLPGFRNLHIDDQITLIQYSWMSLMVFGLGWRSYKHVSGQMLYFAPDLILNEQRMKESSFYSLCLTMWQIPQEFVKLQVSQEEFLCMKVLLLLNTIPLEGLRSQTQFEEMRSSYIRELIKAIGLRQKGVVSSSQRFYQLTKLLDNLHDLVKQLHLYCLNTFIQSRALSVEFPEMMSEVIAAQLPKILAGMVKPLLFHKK
Briefly: Assay for progesterone receptor activity (CV-1 cells transduced with PRb-BacMam and MMTV-BacMam). The assay is classed as cell-based. As to conditions: 24 h, read-out: pEC50, progesterone receptor activity (converted). The protocol: A T225 flask of CV-1 cells at a density of 80% confluency was washed with PBS, detached from the flask using 0.25% trypsin and counted using a Sysmex KX-21N. Cells were diluted in DMEM containing 10% Hyclone, 2 mM […] and 1% Pen/Strep at 140 cells/μl and transduced with 10% PRb-BacMam and 10% MMTV-BacMam. […] of suspension cells were dispensed to each well of white Nunc 384-well plates, containing compounds at the required concentration. After 24 h 10 μl of Steady Glo were added to each well of the plates. Plates were incubated in the dark for 10 min before reading them on a Viewlux reader. Dose response curves were constructed from which pEC50 values were estimated.

The test system of the next assay is NFkB activity. Briefly: Glucocorticoid mediated transrepression of NFkB activity (A549 cells, ELAM promoter alkaline phosphatase reporter, TNFα stimulated). The assay is classed as cell-based. To be noted: Homo sapiens, A549, 16 h, Human A549 lung epithelial cells, 3 ng/ml human recombinant TNFα, read-out: pEC50, transrepression of NFkB activity (converted). An excerpt:
Human A549 lung epithelial cells were engineered to contain a secreted placental alkaline phosphatase gene under the control of the distal region of the NFkB dependent ELAM promoter as previously described in Ray, K. P., Farrow, S., Daly, M., Talabot, F. and Searle, N. “Induction of the E-selectin promoter by interleukin 1 and tumour necrosis factor alpha, and inhibition by glucocorticoids” Biochemical Journal (1997) 328: 707-15.
Compounds were solvated and diluted in DMSO, and transferred directly into assay plates such that the final concentration of DMSO was 0.7%. Following the addition of cells (40K per well), plates were incubated for 1 hr prior to the addition of 3 ng/ml human recombinant TNFα. Following continued incubation for 16 hr, alkaline phosphatase activity was determined by measuring the change in optical density at 405 nm with time following the addition of 0.7 volumes of assay buffer (1 mg/ml p-nitrophenylphosphate dissolved in 1M diethanolamine, 0.28M NaCl, 0.5 mM MgCl2). Dose response curves were constructed from which EC50 values were estimated.

Structures are written as SMILES. A value given as a limit tells only on which side of the number the result lay.

As to `CCOC(=O)c1cccc(-n2ncc3c(NCC(O)(CC(C)(C)c4cc(F)ccc4OC)C(F)(F)F)cccc32)c1` (single isomer, unassigned) [Example 6-A, Ethyl 3-(4-{[4-[5-fluoro-2-(methyloxy)phenyl]-2-hydroxy-4-methyl-2-(trifluoromethyl)pentyl]amino}-1H-indazol-1-yl)benzoate], at Progesterone Receptor, the EC50 was over 10 µM.
Same read-out and setting: next, `COc1ccc(F)cc1C(C)(C)CC(O)(CNc1cc(C)cc2c1cnn2-c1ccccc1)C(F)(F)F` (single isomer, unassigned) [Example 15-A, 1,1,1-Trifluoro-4-[5-fluoro-2-(methyloxy)phenyl]-4-methyl-2-{[(6-methyl-1-phenyl-1H-indazol-4-yl)amino]methyl}-2-pentanol]: over 10 µM.
Still for that read-out and setting: to `COc1ccc(F)cc1C(C)(C)CC(O)(CNc1cccc2c1cnn2-c1ccc(F)cc1F)C(F)(F)F` (single isomer, unassigned) [Example 4-A, 2-({[1-(2,4-Difluorophenyl)-1H-indazol-4-yl]amino}methyl)-1,1′-trifluoro-4-[5-fluoro-2-(methyloxy)phenyl]-4-methyl-2-pentanol] belongs over 10 µM; to `COc1ccc(F)cc1C(C)(C)CC(O)(CNc1cccc2c1cnn2-c1ccc(F)cc1)C(F)(F)F` (single isomer, unassigned) [Example 2-A, 1,1,1-Trifluoro-4-[5-fluoro-2-(methyloxy)phenyl]-2-({[1-(4-fluorophenyl)-1H-indazol-4-yl]amino}methyl)-4-methyl-2-pentanol], over 10 µM.
With `COc1ccc(-n2ncc3c(NCC(O)(CC(C)(C)c4cc(F)ccc4OC)C(F)(F)F)cccc32)cc1` (racemic) [Example 3, 1,1,1-Trifluoro-4-[5-fluoro-2-(methyloxy)phenyl-4-methyl-2-({1-[4-(methyloxy)phenyl]-1H-indazol-4-yl}amino)methyl]-2-pentanol], the EC50 in the assay on NFkB activity was under 0.00316 µM; at Progesterone Receptor, over 10 µM.
Regarding `Cc1cc(NCC(O)(CC(C)(C)c2cc(F)ccc2O)C(F)(F)F)c2cnn(-c3cccc(O)c3)c2c1` (single isomer, unassigned) [Example 24-A, 4-Fluoro-2-[4,4,4-trifluoro-3-hydroxy-3-({[1-(3-hydroxyphenyl)-6-methyl-1H-indazol-4-yl]amino}methyl)-1,1-dimethylbutyl]phenol], the EC50 at Progesterone Receptor is over 10 µM.
Consider `COc1ccc(F)cc1C(C)(C)CC(O)(CNc1cccc2c1cnn2-c1ccccc1)C(F)(F)F` (racemic) [Example 7, 1,1,1-Trifluoro-4-[5-fluoro-2-(methyloxy)phenyl]-4-methyl-2-{[(1-phenyl-1H-indazol-4-yl)amino]methyl}-2-pentanol], for which the EC50 in the assay on NFkB activity was under 0.00316 µM; at Progesterone Receptor it was over 10 µM.
With `COc1ccc(F)cc1C(C)(C)CC(O)(CNc1cc(C)cc2c1cnn2-c1ccc(F)cc1)C(F)(F)F` (single isomer, unassigned) [Example 26-A, 1,1,1-Trifluoro-4-[5-fluoro-2-(methyloxy)phenyl]-2-({[1-(4-fluorophenyl)-6-methyl-1H-indazol-4-yl]amino}methyl)-4-methyl-2-pentanol], at Progesterone Receptor, the EC50 was over 10 µM.
The same measure, in the same setting: to `COc1ccc(F)cc1C(C)(C)CC(O)(CNc1cc(C)cc2c1cnn2-c1ccccc1F)C(F)(F)F` (single isomer, unassigned) [Example 25-B, 1,1,1-Trifluoro-4-[5-fluoro-2-(methyloxy)phenyl]-2-({[1-(2-fluorophenyl)-6-methyl-1H-indazol-4-yl]amino}methyl)-4-methyl-2-pentanol] belongs over 10 µM.
In the case of `COc1ccc(F)cc1C(C)(C)CC(O)(CNc1cccc2c1cnn2-c1ccncc1)C(F)(F)F` (racemic) [Example 5, 1,1,1-Trifluoro-4-[5-fluoro-2-(methyloxy)phenyl]-4-methyl-2-({[1-(4-pyridinyl)-1H-indazol-4-yl]amino}methyl)-2-pentanol], the EC50 is under 0.00316 µM in the assay with NFkB activity and over 10 µM on Progesterone Receptor.
On to `COc1ccc(F)cc1C(C)(C)CC(O)(CNc1cc(C)cc2c1cnn2-c1ccc(F)cc1F)C(F)(F)F` (single isomer, unassigned) [Example 16-B, 2-({[1-(2,4-Difluorophenyl)-6-methyl-1H-indazol-4-yl]amino}methyl)-1,1,1-trifluoro-4-[5-fluoro-2-(methyloxy)phenyl]-4-methyl-2-pentanol], for which the EC50 at Progesterone Receptor is over 10 µM.
